Where two headings read alike, the source gives them in different places.
Columns and labels:
[1] = system: platelet aggregation; assay: Platelet aggregation-inhibiting action in rabbit platelet-rich plasma (aggregometer); type: cell-based; settings: Oryctolagus cuniculus, 0.05 h, rabbit PRP, 37°C, 3 min incubation
Method: Blood was drawn from the carotid artery of a rabbit using a syringe containing 1/10 volume of a 3.8% solution of sodium citrate. The blood was centrifuged to obtain platelet-rich plasma (PRP: 5 x 10^5 cells/µl).
In a cuvette were placed 200 µl of said PRP and 25 µl of a physiological saline solution. The cuvette was set on an aggregometer and warmed at 37°C for 2 min. Into the cuvette was then added 1.25 µl of an ethanol solution of a pyrazine derivative to be tested. After incubated for 3 min., a solution of a platelet-aggregation inducer, arachidonic acid or collagen, was added thereto. Measurements were made for platelet aggregation using an aggregometer (Hematracer IV; Niko Biosciences K.K.). […] Acetylsalicylic acid was used as a comparison.
The 50% inhibitory concentration as shown in the table means the concentration of the solution of a pyrazine derivative required for inhibiting the aggregation of platelets by introducing said pyrazine derivative when the platelet aggregatiqn in the absence of any pyrazine derivative of the invention is taken as 100%.

[2] = target: T1, cyclooxygenase (Oryctolagus cuniculus, UniProt O97554); assay: Cyclooxygenase-inhibiting activity, washed platelets as enzyme source, 14C-arachidonic acid, TLC radiochromatogram; type: biochemical; settings: washed rabbit platelets, 37°C for 3 min; sum of radioactivities of prostaglandin E2, prostaglandin D2 and HHT; read-out: 50% inhibitory concentration (mole)
T1 construct: The washed platelets thus produced were used as an enzyme source for cyclooxygenase; from tissue; host or cells: washed platelets from rabbit carotid artery blood
T1 sequence (O97554 31-606): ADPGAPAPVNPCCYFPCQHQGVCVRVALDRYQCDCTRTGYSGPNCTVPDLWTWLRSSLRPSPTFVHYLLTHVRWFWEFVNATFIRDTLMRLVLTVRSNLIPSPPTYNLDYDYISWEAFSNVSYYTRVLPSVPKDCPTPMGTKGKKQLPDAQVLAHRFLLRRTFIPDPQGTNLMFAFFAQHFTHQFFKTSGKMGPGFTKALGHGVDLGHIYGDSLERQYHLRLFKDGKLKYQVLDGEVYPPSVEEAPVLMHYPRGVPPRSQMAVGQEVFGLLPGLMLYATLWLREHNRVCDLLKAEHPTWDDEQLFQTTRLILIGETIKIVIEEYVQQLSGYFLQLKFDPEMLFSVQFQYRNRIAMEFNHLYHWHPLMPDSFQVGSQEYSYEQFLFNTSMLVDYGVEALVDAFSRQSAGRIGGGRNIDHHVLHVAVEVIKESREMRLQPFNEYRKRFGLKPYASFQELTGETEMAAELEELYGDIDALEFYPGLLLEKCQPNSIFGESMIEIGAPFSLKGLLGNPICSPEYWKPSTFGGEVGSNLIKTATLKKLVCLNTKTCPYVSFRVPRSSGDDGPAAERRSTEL
Method: In a centrifuge tube was collected 9 volumes of blood from the carotid artery of a rabbit per volume of a 3.8% solution of sodium citric acid contained therein using a canula. Platelet-rich plasma was obtained by centrifugation. To the platelet-rich plasma was added a 77 mM solution of EDTA in a volume of 1/10 per volume of said plasma. After mixing thoroughly, the mixture was subjected to centrifugation at 2500 r.p.m. at room temperature for 10 min. The supernatant was discarded, and the platelets were suspended in approximately 3 ml of a wash (134 mM of sodium chloride, 15 mM of trisaminomethane, 1 mM of EDTA and 5 mM of D-glucose dissolved in distilled water with a pH adjusted to 7.4 with 1N-hydrogen chloride), and the suspension was centrifuged at 2000 rpm at room temperature for 10 min. The supernatant was discarded, and the precipitated platelets were suspended in a 1/15 M phosphate buffer solution at pH 8.0 to adjust the number of the platelets to 6-8 x 10^5 cells/µl.
The washed platelets thus produced were used as an enzyme source for cyclooxygenase. […]
Development was made with a developing solvent (chloroform/methanol/acetic acid/water = 90:8:1:0.8) by approximately 18 cm, and then the inhibiting activity was determined by measuring sum of the radioactivities of prostaglandin E2' prostaglandin D2 and HHT by a radiochromatogram scanner.

[3] = aggregation caused by arachidonic acid (80 µM), read-out: 50% aggregation-inhibitory concentration (mole) Arachidonic acid
[4] = aggregation caused by collagen (15 µg/ml), read-out: 50% aggregation-inhibitory concentration (mole) Collagen

Row | IC50 [1, 3] [nM] | IC50 [1, 4] [nM] | IC50 [2] [nM] | Structure (SMILES)
1 | 38 | 9.8 |  | COc1ccc(-c2nc3ccccc3nc2-c2ccc(OC)cc2)cc1 [Example 4, 2,3-bis(p-methoxyphenyl)quinoxaline]
2 | 24 | 15 | 5000 | COc1ccc(-c2ncc(C#N)nc2-c2ccc(OC)cc2)cc1 [Example 13, 2,3-bis(p-methoxyphenyl)-5-cyanopyrazine]
3 | 3.8 | 9.8 |  | COc1ccc(-c2ncc(Cl)nc2-c2ccc(OC)cc2)cc1 [Example 12, 2,3-bis(p-methoxyphenyl)-5-chloropyrazine]
4 | 4500 | 44000 |  | Clc1cccc(Cc2cnc(-c3ccccc3)c(-c3ccccc3)n2)c1 [Example 6, 2,3-diphenyl-5-(m-chlorobenzyl)pyrazine]
5 | 3 | 130 |  | COC(=O)c1cnc(-c2ccc(OC)cc2)c(-c2ccc(OC)cc2)n1 [Example 15]
6 | 82000 | 34000 |  | Clc1ccc(Cc2cnc(-c3ccccc3)c(-c3ccccc3)n2)cc1 [Example 7, 2,3-diphenyl-5-(p-chlorobenzyl)pyrazine]
7 | 260 | 5000 |  | COc1ccc(-c2ncc(C(=O)O)nc2-c2ccc(OC)cc2)cc1 [Example 14, 2,3-bis(p-methoxyphenyl)-pyrazine-5-carboxylic acid]
8 | 15 | 24 |  | COc1ccc(-c2nc3c(nc2-c2ccc(OC)cc2)CCCC3)cc1 [Example 3, 2,3-bis(p-methoxyphenyl)-5,6,7,8-tetrahydroquinoxaline]
9 | 43000 | 31000 |  | c1ccc(-c2ncc(Cc3cccc4ccccc34)nc2-c2ccccc2)cc1 [Example 10, 2,3-diphenyl-5-(l-naphthyl)methylpyrazine]
10 | 16000 | 100000 |  | Brc1ccc(Cc2cnc(-c3ccccc3)c(-c3ccccc3)n2)cc1 [Example 8, 2,3-diphenyl-5-(p-bromobenzyl)pyrazine]
11 | 4400 | 36000 |  | Clc1ccccc1Cc1cnc(-c2ccccc2)c(-c2ccccc2)n1 [Example 5, 2,3-diphenyl-5-(o-chlorobenzyl)pyrazine]
12 | 84000 | 74000 |  | CN(C)c1ccc(Cc2cnc(-c3ccccc3)c(-c3ccccc3)n2)cc1 [Example 9, 2,3-diphenyl-5-(p-dimethylaminobenzyl)pyrazine]
13 | 1700 | 390 |  | CCc1nc(CC)c(-c2ccccc2)nc1-c1ccccc1 [Example 1, 2,6-diethyl-3,5-diphenylpyrazine]
14 | 6000 | 19000 |  | CCc1ncc(-c2ccccc2)nc1-c1ccccc1 [Example 2, 2-ethyl-3,5-diphenylpyrazine]
15 | 1000 | 1000 |  | Cc1cnc(-c2ccc(C#N)cc2)c(-c2ccc(C#N)cc2)n1 [X=-CN, R2=H, R3=-CH3]
16 | 14 | 220 |  | COc1ccc(-c2nc(Cl)c(Cl)nc2-c2ccc(OC)cc2)cc1 [Example 11, 2,3-bis(p-methoxyphenyl)-5,6-dichloropyrazine]

From patent EP0397859A1, “PYRAZINE DERIVATIVES AND MEDICINAL PREPARATION CONTAINING SAME” (TERUMO KABUSHIKI KAISHA, priority 1987, dated 1989)
